We go through 7 compounds from PMC4382590 (Biochemistry, 2015).

Experiment [1] concerns the target T1, ecFabI (Escherichia coli, UniProt P0AEK4).
T1 sequence (P0AEK4 1-262): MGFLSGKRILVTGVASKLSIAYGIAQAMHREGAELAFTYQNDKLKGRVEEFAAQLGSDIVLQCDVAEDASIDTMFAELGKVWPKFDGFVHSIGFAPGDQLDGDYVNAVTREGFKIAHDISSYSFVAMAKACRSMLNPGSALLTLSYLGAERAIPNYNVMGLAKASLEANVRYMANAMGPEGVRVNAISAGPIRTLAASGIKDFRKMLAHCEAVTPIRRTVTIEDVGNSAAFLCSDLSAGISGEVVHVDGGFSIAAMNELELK
Briefly: X-ray crystal structure. The format is binding.

Experiment [2] deals with T2, saFabI (Staphylococcus aureus, UniProt Q6GI75).
T2 sequence (Q6GI75 1-256): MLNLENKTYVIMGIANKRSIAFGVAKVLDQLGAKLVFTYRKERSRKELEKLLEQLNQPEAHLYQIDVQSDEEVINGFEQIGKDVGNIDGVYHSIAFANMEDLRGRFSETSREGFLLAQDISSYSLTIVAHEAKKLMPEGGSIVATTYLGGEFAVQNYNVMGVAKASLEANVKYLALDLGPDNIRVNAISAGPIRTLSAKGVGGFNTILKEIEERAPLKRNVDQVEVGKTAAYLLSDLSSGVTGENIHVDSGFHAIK
In words: X-ray crystal structure. In kind it is binding. Conditions: ternary complexes with PT12, PT400, PT404, PT449 or MUT37307.

The target of experiment [3] is T2, saFabI. Briefly: single-concentration progress curve analysis. In kind it is biochemical.
Experiment [4] deals with T2, saFabI. In words: ThermoFluor thermal shift. The format is binding. Conditions: Tm of free enzyme 62.6.

Structures are written as SMILES.

As for `NC(=O)c1ccc[n+]([C@@H]2O[C@H](COP(=O)(O)OP(=O)(O)OC[C@H]3O[C@@H](n4cnc5c(N)ncnc54)[C@H](O)[C@@H]3O)[C@@H](O)[C@H]2O)c1` [NAD^+], the X-ray crystal structure entry in experiment [1] (ternary complex with PT449) was “ecFabI in complex with NAD^+ and PT449 have been deposited in the PDB”.
Take `N#Cc1cc(Br)ccc1Oc1ccc(Cl)cc1O` [PT449]: in experiment [1] (ternary complex with NAD+), the X-ray crystal structure entry was “ecFabI in complex with NAD^+ and PT449 have been deposited in the PDB”.
As to `NC(=O)c1ccc[n+]([C@@H]2O[C@H](COP(=O)(O)OP(=O)(O)OC[C@H]3O[C@@H](n4cnc5c(N)ncnc54)[C@H](OP(=O)(O)O)[C@@H]3O)[C@@H](O)[C@H]2O)c1` [NADP^+], the X-ray crystal structure entry in experiment [2] is “saFabI in complex with NADP^+ and PT12, PT400, PT404, PT449, or MUT37307”.
With `CCCCCCc1ccc(Oc2ccc([N+](=O)[O-])cc2)c(O)c1` [PT12], the Ki in experiment [3] worked out at 50 pM.
In turn, `CCc1cc(O)c(Oc2ccc([N+](=O)[O-])cc2Cl)cc1F` [PT404] yielded an inhibitory constant (Ki) in experiment [3] of 750 pM.
`CCCCCCc1ccc(Oc2ccccc2C#N)c(O)c1` [PT119]: the “Wild-type saFabI” value in experiment [4] (ternary complex with NADP+) is 70.4 °C.
With `Cc1c(N)cccc1Cn1ccc(OCCc2cccs2)cc1=O` [CG400549], the “Wild-type saFabI” value in experiment [4] (ternary complex with NADPH) came to 71.2 °C.

For orientation: Ki means the dissociation constant of the complex between target and ligand, obtained from inhibition or displacement. Low readings indicate tighter binding, high ones weaker binding.
